Consider 14 compounds from patent US20250171400A1, “AZA-HETEROCYCLYL CARBOXAMIDE AND RELATED COMPOUNDS AND THEIR USE IN TREATING MEDICAL CONDITIONS” (X-BIOTIX THERAPEUTICS, INC., priority 2021, published 2025).

For one assay, the target named is E. coli LpxC (Escherichia coli (strain K12), UniProt P0A725). Description: in vitro substrate deacetylation assay for inhibition of LpxC (ADDA analysis). In kind it is biochemical. The following applies: 5 nM E. coli LpxC, 2.5 μM substrate, 1 hour at room temperature. The method, then:
(§1) Exemplary compounds from the above Examples were tested for ability to inhibit LpxC activity using an in vitro substrate deacetylation assay with ADDA™ analysis. Assay procedures and results are described below.
Dilutions of test compound were pre-incubated with 5 nM P. aeruginosa or E. coli LpxC for 10 minutes at room temperature in 50 mM NaH2PO4, 500 mM sucrose, 0.2 mg/mL BSA, pH 7.2 and <1% DMSO. Reactions were initiated by the addition of 2× substrate (UDP-3-O—(R-3-hydroxydecanoyl)-N-acetylglucosamine, Carbosynth Ltd, UK, for P. aeruginosa LpxC and UDP-3-O—(R-3-hydroxymyristoyl)-N-acetylglucosamine, BOC Sciences, USA, for E. coli LpxC), in 50 mM NaH2PO4, 0.5 mg/mL BSA, pH 7.2, to a final concentration of 2.5 μM. Reactions proceeded for 1 hour at room temperature prior to quenching with and equal volume of 2% acetic acid.
For ADDA™ analysis, an aliquot of assay sample was withdrawn from each well of the 384-well plate and applied to a Hypercarb cartridge (Optimize Technologies, USA) under conditions designed to retain analytes of interest. Analytes were eluted using 1:1:2 acetone:acetonitrile:water containing 5 mM ammonium acetate then analysed by triple-quadrupole mass spectrometry. Mass spectrometry was carried out using electrospray ionization in negative ion mode. Daughter ion peaks representing detected substrate (P. aeruginosa: parent Q1 mass=775.8 amu, daughter Q3 mass=384.7 amu E. coli: parent Q1 mass=833.0 amu, daughter Q3 mass=385.0 amu, collision energy=analyte specific, dwell time=50 ms) were identified using a multiple-reaction monitoring protocol.
Total activity (0% inhibition) was obtained from reactions containing no compound, and 100% inhibition is defined as reactions in the presence of 1 μM CHIR-090 (N-[(1S,2R)-2-hydroxy-1-[(hydroxyamino)carbonyl]propyl]-4-[2-[4-(4-morpholinylmethyl)phenyl]ethynyl]-benzamide). For IC50 determinations, peak areas of the substrate and product were compared to compute the proportion of substrate reacted by the LpxC enzyme at each compound concentration. The fractional activity was converted to percentage inhibition and plotted against compound concentration in ActivityBase™ and fit using a four-parameter logistic using non-linear regression to yield the IC50 value.

For assay [1], the system named is E. coli BW25113 isogenic mutant deficient in acrA mediated efflux. Description: broth microdilution minimum inhibition concentration assay. It is filed as cell-based. The following applies: Escherichia coli, BW25113, read-out: E. coli KO MIC. The method, then: (§2) Exemplary compounds from the above Examples were tested to determine their minimum inhibitory concentration (MIC) for exemplary strains of Eschericia and Pseudomonas bacteria using broth microdilution methods. Assay procedures and results are described below.
(§3) Broth microdilution assays were conducted according to Clinical and Laboratory Standards Institute guidelines (CLSI, M07-A11: Clinical and Laboratory Standards Institute. Methods for Dilution Antimicrobial Susceptibility Tests for Bacteria that Grow Aerobically; Approved Standard—11th Edition. Wayne, PA: CLSI, 2018.). Briefly, a 0.5 McFarland standard suspension was made from bacterial isolates on non-selective, solid media. The inocula were adjusted to give a bacterial concentration of 1×10^6 CFU/mL. Serial doubling-dilutions of each compound were prepared in cation-adjusted Mueller-Hinton broth (Sigma-Aldrich) in 96-well microdilution plates. A 50 μL aliquot of the inoculum was added to each microdilution plate and, within 15 minutes, incubated at 37° C. in air for 16-20 h. […] The test was controlled by the determination of piperacillin MIC against both E. coli ATCC 25922 and P. aeruginosa ATCC 27853 and ensuring accordance with the ranges published in CLSI supplementary document M100 (CLSI, M100Ed29: Clinical and Laboratory Standards Institute. Performance Standards for Antimicrobial Susceptibility Testing, 29th Edition. Wayne, PA: CLSI, 2018.).
(§4) Multiple enterobacteriaceae strains were tested, including E. coli ATCC 25922 and K. pneumoniae ATCC 43816. WT E. coli BW25113 was tested with an isogenic mutant deficient in acrA mediated efflux by clean deletion. WT P. aeruginosa PAO1 was tested with an isogenic mutant deficient in MexA mediated efflux by clean deletion.
(§5) Experimental results are provided in Table 4, which provides MIC values for wild-type E. coli BW25113 (“E. coli WT MIC”), an isogenic mutant deficient in acrA mediated efflux by clean deletion (“E. coli KO MIC”), wild-type P. aeruginosa PAO1 (“P. aeruginosa WT MIC”), and an isogenic mutant deficient in MexA mediated efflux by clean deletion (“[…]”).
On the technique in general: Broth dilution looks for growth in wells or tubes with falling amounts of substance.

The test system of assay [2] is P. aeruginosa PAO1 isogenic mutant deficient in MexA mediated efflux. The assay is described as above. The following applies: Pseudomonas aeruginosa, PAO1, read-out: P. aeruginosa KO MIC. It is filed as cell-based. The method, then: as §2, §3, §4, §5
Assay [3] concerns wild-type P. aeruginosa PAO1. Described as above. It is filed as cell-based. The following applies: Pseudomonas aeruginosa. The method, then: as §2, §3, §4, §5
The test system of assay [4] is wild-type E. coli BW25113. The assay is described as above. In kind it is cell-based. The following applies: Escherichia coli; wild-type E. coli BW25113, 37° C. 16-20 h; read-out: E. coli WT MIC. The method, then: as §2, §3, §4, §5
For a further assay, the target named is P. aeruginosa LpxC (Pseudomonas aeruginosa (strain ATCC 15692 / DSM 22644 / CIP 104116 / JCM 14847 / LMG 12228 / 1C / PRS 101 / PAO1), UniProt P47205). Nature of the assay: biochemical. In kind it is biochemical. The following applies: 5 nM P. aeruginosa LpxC, 2.5 μM substrate, 1 hour at room temperature. As to the method: as §1
For ADDA™ analysis, an aliquot of assay sample was withdrawn from each well of the 384-well plate and applied to a Hypercarb cartridge (Optimize Technologies, USA) under conditions designed to retain analytes of interest. Analytes were eluted using 1:1:2 acetone:acetonitrile:water containing 5 mM ammonium acetate then analysed by triple-quadrupole mass spectrometry. Mass spectrometry was carried out using electrospray ionization in negative ion mode.
For IC50 determinations, peak areas of the substrate and product were compared to compute the proportion of substrate reacted by the LpxC enzyme at each compound concentration.

[5] abbreviates: PAO1, read-out: P. aeruginosa WT MIC.
Setting [6] is: wild-type P. aeruginosa PAO1, 37° C. 16-20 h, read-out: P. aeruginosa WT MIC.

The structures appear in SMILES notation. Values after ≈ are worked out from the molar mass of the structure shown. Like-named read-outs stand apart in the source and are kept apart here.

Chain of E. coli LpxC (P0A725 whole entry): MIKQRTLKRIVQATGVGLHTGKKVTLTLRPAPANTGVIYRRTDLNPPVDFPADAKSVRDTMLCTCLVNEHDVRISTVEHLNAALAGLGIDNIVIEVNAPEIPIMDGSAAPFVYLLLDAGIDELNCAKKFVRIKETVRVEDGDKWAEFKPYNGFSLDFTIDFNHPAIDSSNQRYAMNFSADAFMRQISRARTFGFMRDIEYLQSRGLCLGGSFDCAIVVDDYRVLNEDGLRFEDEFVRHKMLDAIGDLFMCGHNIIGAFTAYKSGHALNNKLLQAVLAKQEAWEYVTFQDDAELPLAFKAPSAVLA

For orientation: IC50 means the concentration that gives 50% inhibition. A lower IC50 goes with higher potency. For orientation: MIC means the least concentration at which growth counts as inhibited. On to `CC(C)C(=O)N1C[C@H](NC(=O)[C@@H]2CCCN2)C[C@@H]1C(=O)NCc1ccc(C#CC#CC2CC2)cc1` [Example 9L], for which the IC50 at E. coli LpxC lay in the range of 500 to 2500 nM; on P. aeruginosa LpxC, 100 to 1000 nM. Also, the MIC is 20 to 100 µM (≈ 9.49 to 47.5 µg/mL) in assay [1], 20 to 100 µM (≈ 9.49 to 47.5 µg/mL) in assay [2], over 100 µM in assay [3] (setting [5]) and over 100 µM in assay [4].

Turning to `O=C(NC[C@H]1C[C@@H](NC(=O)[C@@H]2C[C@H](F)CN2)CN1C(=O)C1CC1)c1ccc(C#Cc2ccc(CN3CCOCC3)cc2)c(F)c1` [Example 8, (2S,4S)—N-((3R,5R)-1-(cyclopropanecarbonyl)-5-((3-fluoro-4-((4-(morpholinomethyl)phenyl)ethynyl)benzamido)methyl)pyrrolidin-3-yl)-4-fluoropyrrolidine-2-carboxamide], the IC50 is under 500 nM against E. coli LpxC and under 50 nM at P. aeruginosa LpxC. The MIC in assay [1] was under 20 µM; in assay [2], under 20 µM; in assay [3] (setting [6]) it was 20 to 100 µM (≈ 12.4 to 62 µg/mL); in assay [4], under 20 µM.

With `NC1CN(C(=O)N2C[C@H](NC(=O)[C@@H]3C[C@H](F)CN3)C[C@@H]2C(=O)NCc2ccc(C#CC#CC3CC3)cc2)C1` [Example 9X], the results for the IC50 against E. coli LpxC and at P. aeruginosa LpxC were 500 to 2500 nM and under 50 nM, respectively. Also, the MIC is 20 to 100 µM (≈ 10.4 to 52.1 µg/mL) in assay [1], under 20 µM in assay [2], over 100 µM in assay [3] (setting [6]) and over 100 µM in assay [4].

For the compound `COCCN(C(=O)[C@@H]1C[C@H](F)CN1)[C@@H]1C[C@H](C(=O)NCc2ccc(C#Cc3ccc(CN4CCOCC4)cc3)cc2)N(C(=O)C2CC2)C1` [Example 9AV, (2R,4R)-1-(Cyclopropanecarbonyl)-4-((2S,4S)-4-fluoro-N-(2-methoxyethyl)pyrrolidine-2-carboxamido)-N-(4-((4-(morpholinomethyl)phenyl)ethynyl)benzyl)pyrrolidine-2-carboxamide], the IC50 against E. coli LpxC is over 10000 nM; on P. aeruginosa LpxC, over 1000 nM. Further, the MIC in assay [1], in assay [2], in assay [3] (setting [6]) and in assay [4] was over 100 µM in each case.

Turning to `CC(C)C(=O)N1C[C@H](NC(=O)[C@@H]2C[C@@H](O)CN2)C[C@@H]1C(=O)NCc1ccc(C#Cc2ccc(CN3CCOCC3)cc2)cc1` [Example 9Y], the IC50 against E. coli LpxC is under 500 nM; against P. aeruginosa LpxC, 50 to 100 nM. The MIC in assay [1] is 20 to 100 µM (≈ 12 to 60.2 µg/mL); in assay [2], 20 to 100 µM (≈ 12 to 60.2 µg/mL); in assay [3] (setting [5]), over 100 µM; in assay [4] it was over 100 µM.

`O=C(N[C@@H]1C[C@H](C(=O)NCc2ccc(C#CC#CC3CC3)cc2)N(CCO)C1)[C@@H]1C[C@H](F)CN1` [Example 9AQ]: the IC50 was 2500 to 10000 nM on E. coli LpxC and 100 to 1000 nM against P. aeruginosa LpxC. The MIC in assay [1], in assay [2], in assay [3] (setting [5]) and in assay [4] was over 100 µM each time.

For the compound `NCCC(=O)N1C[C@H](NC(=O)[C@@H]2C[C@H](F)CN2)C[C@@H]1C(=O)NCc1ccc(C#CC#CC2CC2)cc1` [Example 9M], the IC50 against E. coli LpxC lay within 2500 to 10000 nM; against P. aeruginosa LpxC, 50 to 100 nM. The MIC in assay [1], in assay [2], in assay [3] (setting [5]) and in assay [4] was over 100 µM throughout.

Turning to `CC(C)C(=O)N1C[C@H](NC(=O)[C@@H]2C[C@H](F)CN2)C[C@@H]1C(=O)NCc1ccc(C#CC#Cc2ccccc2)cc1` [Example 9AT], the IC50 against E. coli LpxC was 500 to 2500 nM; at P. aeruginosa LpxC, under 50 nM. Moreover, the MIC in assay [1] is under 20 µM; in assay [2], under 20 µM; in assay [3] (setting [6]) it was over 100 µM; in assay [4], over 100 µM.

With `CC(C)C(=O)N1C[C@H](NC(=O)[C@@H]2C[C@H](C#N)CN2)C[C@@H]1C(=O)NCc1ccc(C#CC#CC2CC2)cc1` [Example 9AE], the IC50 against E. coli LpxC was 500 to 2500 nM; at P. aeruginosa LpxC it was under 50 nM. Further, the MIC in assay [1] was over 100 µM; in assay [2] it was 20 to 100 µM (≈ 9.99 to 50 µg/mL); in assay [3] (setting [6]) it was over 100 µM; in assay [4] it was over 100 µM.

As for `CC(C)C(=O)N1C[C@H](NC(=O)[C@@H]2C[C@H](F)CN2)C[C@@H]1CNC(=O)c1ccc(C#Cc2ccc(CN3CCOCC3)cc2)cc1` [Example 5, (2S,4S)-4-Fluoro-N-((3R,5R)-1-isobutyryl-5-((4-((4-(morpholinomethyl)phenyl)ethynyl)benzamido)methyl)pyrrolidin-3-yl)pyrrolidine-2-carboxamide], the IC50 against E. coli LpxC is under 500 nM; against P. aeruginosa LpxC it was under 50 nM. For the same compound, the MIC in assay [1] is under 20 µM; in assay [2], under 20 µM; in assay [3] (setting [6]), over 100 µM; in assay [4], under 20 µM.

Turning to `C[C@@H](CN)C(=O)N1C[C@H](NC(=O)[C@@H]2C[C@H](F)CN2)C[C@@H]1C(=O)NCc1ccc(C#CC#CC2CC2)cc1` [Example 9S], the results for the 50% inhibitory concentration (IC50) against E. coli LpxC and at P. aeruginosa LpxC were 500 to 2500 nM and 50 to 100 nM, respectively. Further, the MIC in assay [1], in assay [2], in assay [3] (setting [5]) and in assay [4] was over 100 µM throughout.

Turning to `CC(C)C(=O)N1C[C@H](NC(=O)[C@@H]2C[C@@H](F)CN2)C[C@@H]1C(=O)NCc1ccc(C#CC#CC2CC2)cc1` [Example 9I], the IC50 against E. coli LpxC lay within 2500 to 10000 nM; on P. aeruginosa LpxC, 100 to 1000 nM. The MIC in assay [1], in assay [2], in assay [3] (setting [5]) and in assay [4] was over 100 µM each time.

Consider `NCCCC(=O)N1C[C@H](NC(=O)[C@@H]2C[C@H](F)CN2)C[C@@H]1C(=O)NCc1ccc(C#CC#CC2CC2)cc1` [Example 9O], for which the IC50 was in the range of 2500 to 10000 nM against E. coli LpxC and 50 to 100 nM at P. aeruginosa LpxC. Further, the MIC in assay [1], in assay [2], in assay [3] (setting [5]) and in assay [4] was over 100 µM in each case.

For `O=C(N[C@@H]1C[C@H](C(=O)NCc2ccc(C#Cc3ccc(CN4CCOCC4)cc3)cc2)N(C(=O)OC2CC2)C1)[C@@H]1C[C@H](F)CN1` [Example 9AW], the IC50 on E. coli LpxC is under 500 nM; against P. aeruginosa LpxC, under 50 nM. Moreover, the MIC in assay [1] is under 20 µM; in assay [2], under 20 µM; in assay [3] (setting [6]) it was over 100 µM; in assay [4] it was over 100 µM.
